Results taken from ChEMBL document CHEMBL1201862, “PubChem BioAssay data set” (2004).
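All cell lines were grown in 96-well plates and treated with compound for 48 hours. GI50 marks 50% less growth.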 Activity calls are given as the source filed them. Rule as the data show it: active = GI50 up to about 1.1 µM and inactive = higher.

Assays:
Test in all cases: DTP human tumour cell line panel, 48 h
786-0 = system: 786-0
A549 = system: A549
COLO 205 = system: COLO 205
HCT-116 = system: HCT-116
HL-60 = system: HL-60
HOP-62 = system: HOP-62
Hs-578T = system: Hs-578T
K562 = system: K562
LOX IMVI = system: LOX IMVI
MOLT-4 = system: MOLT-4
Malme-3M = system: Malme-3M
NCI-H23 = system: NCI-H23
OVCAR-8 = system: OVCAR-8
PC-3 = system: PC-3
SF-539 = system: SF-539
SNB-19 = system: SNB-19
U-251 = system: U-251
A498 = system: A498
SK-MEL-2 = system: SK-MEL-2
MDA-MB-435 = system: MDA-MB-435

SMILES | GI50 (786-0) | GI50 (A549) | GI50 (COLO 205) | GI50 (HCT-116) | GI50 (HL-60) | GI50 (HOP-62) | GI50 (Hs-578T) | GI50 (K562) | GI50 (LOX IMVI) | GI50 (MOLT-4) | GI50 (Malme-3M) | GI50 (NCI-H23) | GI50 (OVCAR-8) | GI50 (PC-3) | GI50 (SF-539) | GI50 (SNB-19) | GI50 (U-251) | GI50 (A498) | GI50 (SK-MEL-2) | GI50 (MDA-MB-435)
CC(=O)OC12c3ccccc3C(c3ccccc31)C1C(=O)N(c3ccccn3)C(=O)C12 (stereo not given) | > 100 µM (inactive) | 62.7 µM (inactive) | 64.6 µM (inactive) | 54.7 µM (inactive) | 33.5 µM (inactive) | 65.6 µM (inactive) | 14.3 µM (inactive) | 39.1 µM (inactive) | > 100 µM (inactive) | 32.8 µM (inactive) | 31.8 µM (inactive) | > 100 µM (inactive) | > 100 µM (inactive) | 47.9 µM (inactive) | > 100 µM (inactive) | 14.7 µM (inactive) | > 100 µM (inactive) |  |  | 
CCOC(=O)C1(C)CCCc2sc(N)c(C#N)c21 (stereo not given) | > 100 µM (inactive) | > 100 µM (inactive) | > 100 µM (inactive) | > 100 µM (inactive) | > 100 µM (inactive) | > 100 µM (inactive) | > 100 µM (inactive) | > 100 µM (inactive) |  | > 100 µM (inactive) | > 100 µM (inactive) | > 100 µM (inactive) | > 100 µM (inactive) | > 100 µM (inactive) |  | > 100 µM (inactive) | > 100 µM (inactive) | > 100 µM (inactive) | > 100 µM (inactive) | 
CN(C)C(=O)C(F)(F)C(c1ccccc1Br)C1C(=O)N(C)C(=O)N(C)C1=O (stereo not given) | > 100 µM (inactive) | > 100 µM (inactive) | > 100 µM (inactive) | > 100 µM (inactive) |  | > 100 µM (inactive) |  | > 100 µM (inactive) | > 100 µM (inactive) |  | > 100 µM (inactive) | > 100 µM (inactive) | > 100 µM (inactive) | > 100 µM (inactive) |  | > 100 µM (inactive) | > 100 µM (inactive) | > 100 µM (inactive) | > 100 µM (inactive) | > 100 µM (inactive)
CCOC(=O)c1cn(C)nc1N/C(C)=C\C(=O)c1ccccc1 | > 100 µM (inactive) | > 100 µM (inactive) | > 100 µM (inactive) |  | > 100 µM (inactive) | 33 µM (inactive) | > 100 µM (inactive) | > 100 µM (inactive) | 90.8 µM (inactive) | > 100 µM (inactive) | > 100 µM (inactive) | > 100 µM (inactive) | > 100 µM (inactive) | > 100 µM (inactive) | 83.2 µM (inactive) | > 100 µM (inactive) | > 100 µM (inactive) |  |  | > 100 µM (inactive)
CCOC(=O)N1CCC2C(=C(C)C(C)C3=C2C(=O)c2ccccc2C3=O)C1 (stereo not given) | 4.61 µM (inactive) | 4.3 µM (inactive) | 3.33 µM (inactive) |  | 2.07 µM (inactive) | 4.1 µM (inactive) |  | 3.08 µM (inactive) | 3.61 µM (inactive) | 4.6 µM (inactive) | 1.82 µM (inactive) | 2.76 µM (inactive) | 6.18 µM (inactive) | 4.4 µM (inactive) |  |  |  |  |  | 2.25 µM (inactive)
CC1CC/C(=C\c2ccc(N(C)C)cc2)C(=O)/C1=C/c1ccc(N(C)C)cc1 (stereo not given) | > 100 µM (inactive) | > 100 µM (inactive) | > 100 µM (inactive) | > 100 µM (inactive) |  | > 100 µM (inactive) |  | > 100 µM (inactive) | > 100 µM (inactive) | > 100 µM (inactive) | 0.228 µM (active) | > 100 µM (inactive) | > 100 µM (inactive) | > 100 µM (inactive) | > 100 µM (inactive) |  | > 100 µM (inactive) | > 100 µM (inactive) | > 100 µM (inactive) | > 100 µM (inactive)
CCOC(=O)CCCSCCCC(=O)CCCSCCCC(=O)OCC | > 100 µM (inactive) | > 100 µM (inactive) | > 100 µM (inactive) | > 100 µM (inactive) | > 100 µM (inactive) | > 100 µM (inactive) |  | > 100 µM (inactive) | > 100 µM (inactive) | > 100 µM (inactive) |  | > 100 µM (inactive) | > 100 µM (inactive) | > 100 µM (inactive) | > 100 µM (inactive) | > 100 µM (inactive) | > 100 µM (inactive) |  |  | > 100 µM (inactive)
O=C(/C=C/c1ccccc1)Oc1ccc(C(=O)/C=C/c2ccc(Cl)cc2)cc1 | 31.9 µM (inactive) | > 100 µM (inactive) | > 100 µM (inactive) | 83.4 µM (inactive) | 71.1 µM (inactive) | > 100 µM (inactive) |  | 87.3 µM (inactive) |  | > 100 µM (inactive) | > 100 µM (inactive) |  | 42.3 µM (inactive) | 59.7 µM (inactive) | 28 µM (inactive) | 46.1 µM (inactive) | 20.7 µM (inactive) | > 100 µM (inactive) | > 100 µM (inactive) | 25.1 µM (inactive)
